Assay results taken from patent US9975903B2, “Condensed heterocyclic compound” (Takeda Pharmaceutical Company Limited, priority 2014, dated 2018).
Structures can show the parent of a compound that is named as a salt.

Molecular target: T1, Human recombinant enteropeptidase (Homo sapiens, UniProt P98073)
T1 construct: purchased ITSI-Biosciences LLC #REN-260
Test: Human enteropeptidase inhibitory activity (Test Example 1)
Type: biochemical
Settings: 3.3 μM test compound; inhibition rate from fluorescence intensity at 2 hours after the start of the reaction; read-out: 3.3 μM Inhibition
Description: Human recombinant enteropeptidase (#REN-260, ITSI-Biosciences LLC) was diluted with an assay buffer (50 mM Tricine, pH 8.0, 0.01 (w/v) %, Tween 20, 10 mM CaCl2) to prepare a 24 mU/mL enzyme solution. Subsequently, 5FAM-Abu-Gly-Asp-Asp-Asp-Lys-Ile-Val-Gly-Gly-Lys(CPQ2)-Lys-Lys-NH2 (SEQ ID NO: 1, purity: 97.2%, CPC Scientific Inc.) was diluted with the assay buffer to prepare a 2.1 μM substrate solution. A test compound is dissolved in DMSO into a 1 mM solution, and the solution was diluted by 100-fold with the assay buffer to give a compound solution. To a 384-well black plate (#784076, Greiner Bio-One), 5 μL of the compound solution and 5 μL of the substrate solution were added and mixed, and 5 μL of the enzyme solution was then added to the mixture, followed by mixing to start the reaction. The fluorescence intensity was measured with a fluorescence plate reader EnVision (The Perkin-Elmer Corp.) at an excitation wavelength of 485 nm and a fluorescence wavelength of 535 nm. The same reaction as above except that the test compound was not contained was performed (test compound non-addition group). Furthermore, the same reaction as above except that the test compound and the enzyme were not contained was performed (control group). The inhibition rate was calculated using the fluorescence intensity at 2 hours after the start of the reaction by the following expression: Inhibition rate (%)=(1−((fluorescence intensity of test compound addition group)−(fluorescence intensity of control group))/((fluorescence intensity of test compound non-addition group)−(fluorescence intensity of control group)))×100

T1 sequence (P98073 whole entry): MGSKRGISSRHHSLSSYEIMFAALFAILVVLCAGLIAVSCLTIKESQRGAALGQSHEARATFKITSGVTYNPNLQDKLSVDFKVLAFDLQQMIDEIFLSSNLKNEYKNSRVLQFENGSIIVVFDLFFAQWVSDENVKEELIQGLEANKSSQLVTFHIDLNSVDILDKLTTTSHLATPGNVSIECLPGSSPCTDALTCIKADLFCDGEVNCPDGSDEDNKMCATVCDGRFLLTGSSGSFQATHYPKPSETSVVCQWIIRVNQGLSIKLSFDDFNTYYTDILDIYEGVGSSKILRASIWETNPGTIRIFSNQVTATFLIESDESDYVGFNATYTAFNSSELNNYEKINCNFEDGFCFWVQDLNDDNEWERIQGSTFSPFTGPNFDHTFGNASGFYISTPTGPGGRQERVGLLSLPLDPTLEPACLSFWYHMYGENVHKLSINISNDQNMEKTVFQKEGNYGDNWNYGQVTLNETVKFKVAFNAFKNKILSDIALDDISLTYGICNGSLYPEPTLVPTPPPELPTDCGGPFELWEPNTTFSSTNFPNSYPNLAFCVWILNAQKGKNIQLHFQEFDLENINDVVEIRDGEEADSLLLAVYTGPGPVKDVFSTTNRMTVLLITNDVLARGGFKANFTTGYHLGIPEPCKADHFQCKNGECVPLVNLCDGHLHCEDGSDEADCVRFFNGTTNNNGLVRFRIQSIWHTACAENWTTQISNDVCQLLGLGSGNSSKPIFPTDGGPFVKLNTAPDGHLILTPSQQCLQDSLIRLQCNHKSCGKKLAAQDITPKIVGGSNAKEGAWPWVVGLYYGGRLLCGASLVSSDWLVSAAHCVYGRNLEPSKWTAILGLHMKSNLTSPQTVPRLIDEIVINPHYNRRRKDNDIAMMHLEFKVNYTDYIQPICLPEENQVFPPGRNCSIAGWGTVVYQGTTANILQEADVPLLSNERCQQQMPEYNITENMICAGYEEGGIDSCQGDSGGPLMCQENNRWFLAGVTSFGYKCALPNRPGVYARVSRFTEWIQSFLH

Compound	inhibition at 3.3 µM [%]
N=C(N)Nc1ccc2c(c1)CCc1cccc(CCC(=O)N[C@@H](CC(=O)O)C(=O)O)c1OC2=O [Example 54, N-(3-(9-carbamimidamido-6-oxo-11,12-dihydro-6H-dibenzo[b,f]oxocin-4-yl)propanoyl)-L-aspartic acid]	89
N=C(N)Nc1ccc2c(c1)CCc1ccc(CCC(=O)N[C@@H](CC(=O)O)C(=O)O)cc1OC2=O [Example 55, N-(3-(9-carbamimidamido-6-oxo-11,12-dihydro-6H-dibenzo[b,f]oxocin-3-yl)propanoyl)-L-aspartic acid]	98
N=C(N)Nc1ccc2c(c1)CCc1cc(CCC(=O)N[C@@H](CC(=O)O)C(=O)O)ccc1OC2=O [Example 56, N-(3-(9-carbamimidamido-6-oxo-11,12-dihydro-6H-dibenzo[b,f]oxocin-2-yl)propanoyl)-L-aspartic acid]	100
N=C(N)Nc1ccc2c(c1)CCc1c(CCC(=O)N[C@@H](CC(=O)O)C(=O)O)cccc1OC2=O [Example 57, N-(3-(9-Carbamimidamido-6-oxo-11,12-dihydro-6H-dibenzo[b,f]oxocin-1-yl)propanoyl)-L-aspartic acid trifluoroacetate]	100
N=C(N)Nc1ccc2c(c1)CCc1ccccc1OC2=O [Example 58, 1-(6-Oxo-11,12-dihydro-6H-dibenzo[b,f]oxocin-9-yl)guanidine trifluoroacetate]	55
N=C(N)c1ccc2c(c1)CCc1cc(CCC(=O)N[C@@H](CC(=O)O)C(=O)O)ccc1C(=O)O2 [Example 60, N-(3-(2-carbamimidoyl-6-oxo-11,12-dihydro-6H-dibenzo[b,f]oxocin-9-yl)propanoyl)-L-aspartic acid]	59
N=C(N)c1ccc2c(c1)CCc1c(CCC(=O)N[C@@H](CC(=O)O)C(=O)O)cccc1C(=O)O2 [Example 61, N-(3-(2-Carbamimidoyl-6-oxo-11,12-dihydro-6H-dibenzo[b,f]oxocin-10-yl)propanoyl)-L-aspartic acid trifluoroacetate]	72
N=C(N)c1ccc2c(c1)CCc1c(C(=O)N[C@@H](CC(=O)O)C(=O)O)cccc1C(=O)O2 [Example 62, N-((2-Carbamimidoyl-6-oxo-11,12-dihydro-6H-dibenzo[b,f]oxocin-10-yl)carbonyl)-L-aspartic acid trifluoroacetate]	84
N=C(N)c1ccc2c(c1)CCc1cc(C(=O)N[C@@H](CC(=O)O)C(=O)O)ccc1C(=O)O2 [Example 63, N-((2-carbamimidoyl-6-oxo-11,12-dihydro-6H-dibenzo[b,f]oxocin-9-yl)carbonyl)-L-aspartic acid]	93
N=C(N)Nc1ccc2c(c1)CCCOc1c(cccc1C(=O)N(CCC(=O)O)CC(=O)O)OC2=O [Example 64, N-((10-carbamimidamido-13-oxo-6,7,8,13-tetrahydro-dibenzo[b,f] [1,4]dioxecin-4-yl)carbonyl)-N-(carboxymethyl)-beta-alanine]	101
N=C(N)Nc1ccc2c(c1)CCCOc1c(cccc1C(=O)N(CC(=O)O)[C@@H](CC(N)=O)C(=O)O)OC2=O [Example 65, N^2-((10-Carbamimidamido-13-oxo-6,7,8,13-tetrahydrodibenzo[b,f][1,4]dioxecin-4-yl)carbonyl)-N^2-(carboxymethyl)-L-asparagine]	100
N=C(N)Nc1ccc2c(c1)CCCOc1c(cc(Cl)cc1C(=O)N[C@@H](CC(=O)O)C(=O)O)OC2=O [Example 66, N-((10-carbamimidamido-2-chloro-13-oxo-6,7,8,13-tetrahydro-dibenzo[b,f] [1,4]dioxecin-4-yl)carbonyl)-L-aspartic acid]	101
N=C(N)Nc1ccc2c(c1)CCCOc1ccccc1OC2=O [Example 68, 1-(13-Oxo-6,7,8,13-tetrahydrodibenzo[b,f][1,4]dioxecin-10-yl)guanidine trifluoroacetate]	83
N=C(N)c1ccc2c(c1)CCCCc1cc(C(=O)N[C@@H](CC(=O)O)C(=O)O)ccc1C(=O)O2 [Example 69, N-((10-Carbamimidoyl-14-oxo-5,7,8,14-tetrahydro-6H-dibenzo[b,h]oxecin-3-yl)carbonyl)-L-aspartic acid trifluoroacetate]	100
Cc1cc2c(c(C(=O)N[C@@H](CC(=O)O)C(=O)O)c1)OCCCc1cc(NC(=N)N)ccc1C(=O)O2 [Example 70, N-((10-carbamimidamido-2-methyl-13-oxo-6,7,8,13-tetrahydro-dibenzo[b,f] [1,4]dioxecin-4-yl)carbonyl)-L-aspartic acid]	102
N=C(N)Nc1ccc2c(c1)CCCOc1c(cccc1C(=O)N(CC(=O)O)Cc1cccc(C(=O)O)c1)OC2=O [Example 71, 3-((((10-Carbamimidamido-13-oxo-6,7,8,13-tetrahydrodibenzo[b,f][1,4]dioxecin-4-yl)carbonyl) (carboxymethyl)amino)methyl)benzoic acid]	100
N=C(N)Nc1ccc2c(c1)CCCOc1ccc(CCC(=O)N[C@@H](CC(=O)O)C(=O)O)cc1OC2=O [Example 78, N-(3-(10-carbamimidamido-13-oxo-6,7,8,13-tetrahydro-dibenzo[b,f] [1,4]dioxecin-2-yl)propanoyl) aspartic acid]	93
N=C(N)Nc1ccc2c(c1)OCCCc1c(CCC(=O)N[C@@H](CC(=O)O)C(=O)O)cccc1OC2=O [Example 79, N-(3-(3-Carbamimidamido-14-oxo-7,8-dihydro-6H,14H-dibenzo[b,f][1,5]dioxecin-9-yl)propanoyl)-L-aspartic acid]	101
N=C(N)Nc1ccc2c(c1)CCCOc1cc(C(=O)N[C@@H](CC(=O)O)C(=O)O)ccc1OC2=O [Example 81, N-((10-carbamimidamido-13-oxo-6,7,8,13-tetrahydro-dibenzo[b,f] [1,4]dioxecin-3-yl)carbonyl)-L-aspartic acid]	101

The next lines start with the values.

inhibition at 3.3 µM [%]	Compound
100	COc1cc2c(c(C(=O)N[C@@H](CC(=O)O)C(=O)O)c1)CCCCc1cc(NC(=N)N)ccc1C(=O)O2 [Example 67, N-((3-Carbamimidamido-11-methoxy-14-oxo-5,7,8,14-tetrahydro-6H-dibenzo[b,h]oxecin-9-yl)carbonyl)-L-aspartic acid]
101	Cc1cc2c(c(C(=O)N[C@@H](CC(=O)O)C(=O)O)c1)CCCCc1cc(NC(=N)N)ccc1C(=O)O2 [Example 72, N-((3-carbamimidamido-11-methyl-14-oxo-5,7,8,14-tetrahydro-6H-dibenzo[b,h]oxecin-9-yl)carbonyl)-L-aspartic acid]
100	N=C(N)Nc1ccc2c(c1)CCCc1cc(C(=O)N[C@@H](CC(=O)O)C(=O)O)ccc1OC2=O [Example 73, N-((9-carbamimidamido-6-oxo-6,11,12,13-tetrahydro-dibenzo[b,g]oxonin-2-yl)carbonyl)-L-aspartic acid]
101	N=C(N)Nc1ccc2c(c1)CCCCc1c(cccc1C(=O)NC(CC(=O)O)CC(=O)O)OC2=O [Example 74, 3-(((3-carbamimidamido-14-oxo-5,7,8,14-tetrahydro-6H-dibenzo[b,h]oxecin-9-yl)carbony)amino)pentanedioic acid]
101	N=C(N)Nc1ccc2c(c1)CCCCCc1c(cccc1C(=O)N[C@@H](CC(=O)O)C(=O)O)OC2=O [Example 76, N-((3-Carbamimidamido-15-oxo-5,6,7,8,9,15-hexahydrodibenzo[b,i]hexacycloundecin-10-yl)carbonyl)-L-aspartic acid]
99	N=C(N)Nc1ccc2c(c1)CCCCCCc1c(cccc1C(=O)N[C@@H](CC(=O)O)C(=O)O)OC2=O [Example 77, N-((3-Carbamimidamido-16-oxo-5,7,8,9,10,16-hexahydro-6H-dibenzo[b,j]oxacyclododecin-11-yl)carbonyl)-L-aspartic acid]
102	N=C(N)Nc1ccc2c(c1)CCCCOc1c(cccc1C(=O)N[C@@H](CC(=O)O)C(=O)O)OC2=O [Example 82, N-((11-carbamimidamido-14-oxo-7,8,9,14-tetrahydro-6H-dibenzo[b,f][1,4]dioxacycloundecin-4-yl)carbonyl)-L-aspartic acid]
102	N=C(N)Nc1ccc2c(c1)CCCCc1c(CCC(=O)N[C@@H](CC(=O)O)C(=O)O)cccc1OC2=O [Example 83, N-(3-(3-carbamimidamido-14-oxo-5,7,8,14-tetrahydro-6H-dibenzo[b,h]oxecin-9-yl)propanoyl)-L-aspartic acid]
101	N=C(N)Nc1ccc2c(c1)OCCCc1c(cccc1C(=O)N[C@@H](CC(=O)O)C(=O)O)OC2=O [Example 84, N-((3-carbamimidamido-14-oxo-7,8-dihydro-6H,14H-dibenzo[b,f][1,5]dioxecin-9-yl)carbonyl)-L-aspartic acid]

Same assay, conditions: read-out: 3.3 μM Inhibition

Compound	inhibition at 3.3 µM [%]
N=C(N)c1ccc2c(c1)CCc1ccccc1C(=O)O2 [Example 59, 6-Oxo-11,12-dihydro-6H-dibenzo[b,f]oxocine-2-carboximidamide trifluoroacetate]	57
